{"source": "patent US8729116B2", "about": "“Triazole compound having pesticidal activities” (Kumiai Chemical Industry Co., Ltd., priority 2010, dated 2014)", "assay_type_in_all_cases": "in vivo", "key": {"[1]": {"tested_on": "resistant strain red mite (Panonychus citri)", "assay": "Miticidal activity against adults of red mite (resistant strain), leaf disk spray test", "conditions": "spray 2 mg/cm^2 on cinnamon leaf disks, female adults, two days after treatment; for Mortality (%): 6.25 ppm", "method": "Miticidal Activity Against Adults of Red Mite (Resistant Strain) (Leaf Disk Spray Test)\n0.5 mass % of agar was blended to water and put into a plastic cup having a capacity of 60 mL, and two cinnamon leaf disks were put thereon and ten female adults of resistant strain red mite (Panonychus citri) were inoculated and left to stand overnight at a constant temperature chamber at 25° C. (photoperiod conditions: light period of 16 hours/dark period of 8 hours). […] Upon expiration of two days after the treatment, the number of dead mites was counted, and the mortality was calculated by the formula 1. The test was carried out twice."}, "[2]": {"tested_on": "susceptible strain two-spotted spider mite (Tetranychus urticae)", "assay": "Penetration/transfer activity against two-spotted spider mite (susceptible strain), soil irrigation cup test", "conditions": "0.0031 mg a.i./seedling, soil drench 5 mL/seedling, soybean, live mites counted after 13 days", "method": "Penetration/Transfer Activity Against Two-Spotted Spider Mite (Susceptible Strain) (Soil Irrigation Cup Test)\nTo soybean (Glycine max) planted in a plastic cup, 35 female adults of susceptible strain two-spotted spider mite (Tetranychus urticae) were inoculated and left to stand overnight at a constant temperature chamber at 25° C. (photoperiod conditions: light period of 16 hours/dark period of 8 hours). A test pesticide prepared by diluting the test compound formulated in accordance with Formulation Example 2 to a predetermined concentration as disclosed in Table 4, was applied by soil drench treatment (5 mL/seedling). Upon expiration of 13 days, the number of live mites was counted, and the preventive value was calculated by the formula 2. The test was carried out twice."}, "[3]": {"tested_on": "susceptible strain two-spotted spider mite (Tetranychus urticae)", "assay": "Miticidal activity against adults of two-spotted spider mite (susceptible strain), leaf disk spray test", "conditions": "foliar, 48 h, spray 2 mg/cm^2 on kidney bean leaf disks, female adults, two days after treatment", "method": "Miticidal Activity Against Adults of Two-Spotted Spider Mite (Susceptible Strain) (Leaf Disk Spray Test)\nA plastic cup having a capacity of 60 mL was half-filled with water, and a perforated cover was put thereon. Absorbent cotton was impregnated with water through the perforations, and two sheets of filter paper were overlaid thereon. Two leaves of kidney beans (Phaseolus vulgaris) cutout in a circular shape with a diameter of 2, cm, were put thereon, and ten female adults of susceptible strain two-spotted spider mite (Tetranychus urticae) were inoculated and left to stand overnight in a constant temperature chamber at 25° C. (photoperiod conditions: light period of 16 hours/dark period of 8 hours). […] Upon expiration of two days after the treatment, the number of dead mites was counted, and the mortality was calculated by the formula 1. The test was carried out twice."}, "[4]": {"tested_on": "resistant strain two-spotted spider mite (Tetranychus urticae)", "assay": "Miticidal activity against adults of two-spotted spider mite (resistant strain), leaf disk spray test", "conditions": "spray 2 mg/cm^2 on kidney bean leaf disks, female adults, two days after treatment; for Mortality (%): 100 ppm", "method": "Miticidal Activity Against Adults of Two-Spotted Spider Mite (Resistant Strain) (Leaf Disk Spray Test)\nA plastic cup having a capacity of 60 mL was half-filled with water, and a perforated cover was put thereon. Absorbent cotton was impregnated with water through the perforations, and two sheets of filter paper were overlaid thereon. Two leaves of kidney beans (Phaseolus vulgaris) cutout in a circular shape with a diameter of 2 cm, were put thereon, and ten female adults of resistant strain two-spotted spider mite (Tetranychus urticae) were inoculated and left to stand overnight in a constant temperature chamber at 25° C. (photoperiod conditions: light period of 16 hours/dark period of 8 hours). After removing abnormal mites and dead mites, a pesticide prepared by diluting the test compound formulated in accordance with Formulation Example 2 with a diluent such as water, as shown in Table 2 was sprayed by an automatic spraying device (2 mg/cm^2). Upon expiration of two days after the treatment, the number of dead mites was counted, and the mortality was calculated by the formula 1. The test was carried out twice."}}, "data": [{"smiles": "Cc1cc(F)c(-n2nc(C(F)(F)F)nc2N)cc1[S+]([O-])CC(F)(F)F", "note": "(racemic) [Compound No. II, 1-[2-fluoro-4-methyl-5-(2,2,2-trifluoroethylsulfinyl)phenyl]-5-amino-3-(trifluoromethyl)-1H-1,2,4-triazole, reference compound]", "values": [{"measurement": "mortality at 6.25 ppm", "setting": "[1]; Panonychus citri, foliar, 48 h", "result": 36, "unit": "%"}, {"measurement": "Preventive value (%)", "setting": "[2]", "result": 0, "unit": "%"}, {"measurement": "mortality at 3.125 ppm", "setting": "[3]", "result": 8, "unit": "%"}, {"measurement": "mortality at 100 ppm", "setting": "[4]; Tetranychus urticae, foliar, 48 h", "result": 16, "unit": "%"}]}, {"smiles": "Cc1cc(F)c(-n2nc(C(F)(F)F)nc2N)cc1[S+]([O-])CC(F)(F)F", "note": "(single isomer, unassigned; (+)) [Compound No. I, (+)-1-[2-fluoro-4-methyl-5-(2,2,2-trifluoroethylsulfinyl)phenyl]-5-amino-3-(trifluoromethyl)-1H-1,2,4-triazole]", "values": [{"measurement": "Mortality (%)", "setting": "[1]", "result": 93, "unit": "%"}, {"measurement": "Preventive value (%)", "setting": "[2]", "result": 100, "unit": "%"}, {"measurement": "mortality at 3.125 ppm", "setting": "[3]", "result": 79, "unit": "%"}, {"measurement": "Mortality (%)", "setting": "[4]", "result": 94, "unit": "%"}]}, {"smiles": "Cc1cc(F)c(-n2nc(C(F)(F)F)nc2N)cc1[S+]([O-])CC(F)(F)F", "note": "(single isomer, unassigned; (-)) [Compound No. III, (−)-1-[2-fluoro-4-methyl-5-(2,2,2-trifluoroethylsulfinyl)phenyl]-5-amino-3-(trifluoromethyl)-1H-1,2,4-triazole]", "values": [{"measurement": "Mortality (%)", "setting": "[1]", "result": 0, "unit": "%"}, {"measurement": "Preventive value (%)", "setting": "[2]", "result": 0, "unit": "%"}, {"measurement": "mortality at 6.25 ppm", "setting": "[3]; 6.25 ppm", "result": 0, "unit": "%"}, {"measurement": "Mortality (%)", "setting": "[4]", "result": 0, "unit": "%"}]}]}
